Source: patent publication US20220204560A1, “NOVEL OLIGOPEPTIDE, AND PHARMACEUTICAL COMPOSITION FOR PREVENTING OR TREATING CANCER, COMPRISING THE SAME AS AN ACTIVE INGREDIENT” (L-BASE CO., LTD., priority 2019, published 2022)

Legend:
[1] = system: breast cancer cell line HCC70; test: CellTiter-Glo Luminescent (CTG) assay, cell activity suppression, breast cancer cell line HCC70; format: cell-based; conditions: HCC70, 100 μM or 500 μM, 72 hours, compared to control group (FIG. 5)
[2] = system: breast cancer cell line MDA-MB-231; test: Clonogenic assay, colony formation suppression, breast cancer cell line MDA-MB-231; format: cell-based; conditions: MDA-MB-231, 100 μM or 500 μM, 14 days, compared to control group (FIG. 4)

Sequence | suppression of the activity of cancer cells (amount of ATP, CTG assay) [1] | suppression of colony formation (clonogenic assay) [2]
AQTITGKT (Oligopeptide #1 AQTITGKT) [oligopeptide of General Formula A-Q-T-X-T-G-K-T, X is isoleucine] | significant effects on suppression of the colony formation and the activity of cancer cells | significant effects on suppression of the colony formation
AQTLTGKT | significant effects on suppression of the colony formation and the activity of cancer cells | significant effects on suppression of the colony formation
